# Reference: the NIST ThermoML archive (doi:10.1016/j.fluid.2013.06.048)
# Values joined by “and” are separate entries in the source; they are usually repeats but may differ in a detail not shown here. Equal values may be shown once. ± gives the expanded uncertainty stated by the source.
# Conditions: Liquid; pulse-heating method
Critical pressure,Critical temperature,Structure (SMILES)
4000 ± 160 kPa,731 ± 24 K,"OCCCCCO [1,5-pentanediol]"
3400 ± 160 kPa and 4080 ± 160 kPa,,"OCCCCCCO [1,6-hexanediol]"
2700 ± 160 kPa,752 ± 24 K,"OCCCCCCCCO [1,8-octanediol]"
2400 ± 160 kPa,760 ± 24 K,"OCCCCCCCCCO [1,9-nonanediol]"
2200 ± 160 kPa,770 ± 24 K,"OCCCCCCCCCCO [1,10-decanediol]"
1930 ± 160 kPa,798 ± 24 K,"OCCCCCCCCCCCCO [1,12-dihydroxydodecane]"

Structure (SMILES),Critical pressure,Critical temperature
"OCCCCO [1,4-butanediol]",5400 ± 160 kPa and 6220 ± 160 kPa and 5520 ± 160 kPa,728 ± 24 K and 727 ± 24 K and 723.8 ± 24 K
"OCCCO [propan-1,3-diol]",6380 ± 160 kPa and 6300 ± 200 kPa and 6550 ± 160 kPa,721 ± 24 K and 722 ± 24 K and 718.2 ± 24 K
